This passage reports IC50 and Ki results from ChEMBL document CHEMBL1909046, “DrugMatrix in vitro pharmacology data”.

A short description of data set [1]: DRUGMATRIX: Nicotinic Acetylcholine radioligand binding (ligand: [125I] Epibatidine). The data set is classed as cell membranes, Membrane. Conditions: imr-32; Not Active = under 50% inhibition at 10 µM.
Data set [2] addresses Insulin receptor (Rattus norvegicus, UniProt P15127). The data set is classed as cell membranes, Wistar, Liver, Membrane.
Data set [3] addresses Beta-3 adrenergic receptor (Homo sapiens, UniProt P13945). Kind of data set: DRUGMATRIX: Adrenergic beta3 radioligand binding (ligand: [125I] Cyanopindolol). The note with it: hek293; Not Active = under 50% inhibition at 10 µM. The class given is cell membranes, Membrane.
Data set [4] has as its target T1, Adenosine receptor A3 (Homo sapiens, UniProt P0DMS8).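 Further: radioligand binding assay with AB-MECA serving as the labeled ligand; in other assays of this panel Not Active means under 50% inhibition at 10 µM.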
T1 sequence (P0DMS8 whole entry): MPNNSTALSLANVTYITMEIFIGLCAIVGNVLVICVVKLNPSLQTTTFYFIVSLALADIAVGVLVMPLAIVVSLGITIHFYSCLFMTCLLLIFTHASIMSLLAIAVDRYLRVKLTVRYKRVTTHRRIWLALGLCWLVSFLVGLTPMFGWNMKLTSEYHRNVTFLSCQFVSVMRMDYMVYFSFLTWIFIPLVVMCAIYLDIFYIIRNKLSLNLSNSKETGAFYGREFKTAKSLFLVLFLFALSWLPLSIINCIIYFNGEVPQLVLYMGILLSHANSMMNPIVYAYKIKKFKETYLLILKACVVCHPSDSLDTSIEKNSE
The data set is classed as cell membranes, CHO-K1, Membrane. Conditions: cho-k1.

Data set [5] can be described thus: DRUGMATRIX: Purinergic P2X radioligand binding (ligand: [3H] alpha, beta-Methylene-ATP). The data set is classed as cell membranes, Oryctolagus cuniculus, New Zealand albino, Urinary bladder, Membrane. Conditions: Not Active = under 50% inhibition at 10 µM.
Data set [6] addresses cGMP-specific 3',5'-cyclic phosphodiesterase (Homo sapiens, UniProt O76074). Description: DRUGMATRIX: Phosphodiesterase PDE5 enzyme inhibition (substrate: [3H]cGMP + cGMP). The class given is tissue-based. The note with it: platelet; Not Active = under 50% inhibition at 10 µM.
Data set [7] is described as follows: DRUGMATRIX: ATPase, Na+/K+ enzyme inhibition (substrate: ATP). The note with it: Not Active = under 50% inhibition at 10 µM. The class given is tissue-based, Sus scrofa, Heart.
Data set [8] concerns the target Prostaglandin G/H synthase 1 (Homo sapiens, UniProt P23219). Description: biochemical. The class given is tissue-based, Platelet.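 Further: inhibition of COX-1 enzyme activity, with arachidonic acid supplied as substrate; in other assays of this panel Not Active means under 50% inhibition at 10 µM.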
Data set [9] addresses Beta-1 adrenergic receptor (Homo sapiens, UniProt P08588). Kind of data set: DRUGMATRIX: Adrenergic beta1 radioligand binding (ligand: [125I] Cyanopindolol). The data set is classed as cell membranes, CHO-K1, Membrane. The note with it: cho-k1; Not Active = under 50% inhibition at 10 µM.
For data set [10], the target named is Tyrosine-protein kinase Lck (Homo sapiens, UniProt P06239). Description: DRUGMATRIX: Protein Tyrosine Kinase, LCK enzyme inhibition (substrate: Poly(Glu:Tyr)). The data set is classed as cell-based, Insect cells. The note with it: insect cells; Not Active = under 50% inhibition at 10 µM.
Chain of Tyrosine-protein kinase Lck (P06239 whole entry): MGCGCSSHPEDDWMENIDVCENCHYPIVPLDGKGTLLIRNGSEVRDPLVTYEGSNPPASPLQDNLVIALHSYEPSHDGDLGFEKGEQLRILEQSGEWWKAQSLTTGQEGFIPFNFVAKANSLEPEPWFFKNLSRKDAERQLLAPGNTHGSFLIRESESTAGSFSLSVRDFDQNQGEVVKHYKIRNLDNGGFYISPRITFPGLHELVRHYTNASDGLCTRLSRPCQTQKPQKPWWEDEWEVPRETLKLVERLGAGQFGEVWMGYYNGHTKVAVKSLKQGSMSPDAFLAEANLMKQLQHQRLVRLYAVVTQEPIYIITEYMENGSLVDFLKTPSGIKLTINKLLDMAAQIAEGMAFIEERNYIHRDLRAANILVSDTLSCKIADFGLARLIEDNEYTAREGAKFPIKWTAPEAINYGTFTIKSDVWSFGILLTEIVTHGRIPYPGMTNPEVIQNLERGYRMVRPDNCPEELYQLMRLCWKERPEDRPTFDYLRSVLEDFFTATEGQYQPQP
The target of data set [11] is Cytochrome P450 2E1 (Homo sapiens, UniProt P05181). Conditions: bti-tn-5b1-4. Further: in other assays of this panel Not Active means under 50% inhibition at 10 µM.
Chain of Cytochrome P450 2E1 (P05181 whole entry): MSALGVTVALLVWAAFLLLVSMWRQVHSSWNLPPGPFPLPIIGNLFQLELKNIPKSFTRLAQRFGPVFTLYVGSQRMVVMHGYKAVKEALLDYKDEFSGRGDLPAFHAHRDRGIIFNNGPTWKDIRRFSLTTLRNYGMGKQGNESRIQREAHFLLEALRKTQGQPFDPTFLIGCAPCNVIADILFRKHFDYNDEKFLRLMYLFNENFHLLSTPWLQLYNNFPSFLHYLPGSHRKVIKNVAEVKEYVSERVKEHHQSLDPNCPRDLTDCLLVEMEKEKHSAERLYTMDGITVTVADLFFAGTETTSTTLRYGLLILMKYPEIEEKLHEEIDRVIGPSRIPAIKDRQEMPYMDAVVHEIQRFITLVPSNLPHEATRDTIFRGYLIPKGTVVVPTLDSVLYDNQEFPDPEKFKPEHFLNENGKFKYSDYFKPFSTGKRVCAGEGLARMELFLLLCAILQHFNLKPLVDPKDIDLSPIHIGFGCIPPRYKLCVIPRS

Chain of Beta-3 adrenergic receptor (P13945 whole entry): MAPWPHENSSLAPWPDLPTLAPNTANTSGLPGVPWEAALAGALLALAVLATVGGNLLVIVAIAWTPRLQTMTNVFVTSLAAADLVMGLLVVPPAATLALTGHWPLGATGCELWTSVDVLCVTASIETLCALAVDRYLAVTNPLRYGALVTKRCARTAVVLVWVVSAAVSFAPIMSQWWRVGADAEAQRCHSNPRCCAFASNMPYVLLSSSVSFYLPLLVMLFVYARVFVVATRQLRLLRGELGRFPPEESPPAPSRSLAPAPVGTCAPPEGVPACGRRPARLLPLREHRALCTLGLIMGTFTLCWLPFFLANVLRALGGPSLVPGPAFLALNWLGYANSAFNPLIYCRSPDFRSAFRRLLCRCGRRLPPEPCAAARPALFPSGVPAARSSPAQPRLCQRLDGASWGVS
Chain of Prostaglandin G/H synthase 1 (P23219 whole entry): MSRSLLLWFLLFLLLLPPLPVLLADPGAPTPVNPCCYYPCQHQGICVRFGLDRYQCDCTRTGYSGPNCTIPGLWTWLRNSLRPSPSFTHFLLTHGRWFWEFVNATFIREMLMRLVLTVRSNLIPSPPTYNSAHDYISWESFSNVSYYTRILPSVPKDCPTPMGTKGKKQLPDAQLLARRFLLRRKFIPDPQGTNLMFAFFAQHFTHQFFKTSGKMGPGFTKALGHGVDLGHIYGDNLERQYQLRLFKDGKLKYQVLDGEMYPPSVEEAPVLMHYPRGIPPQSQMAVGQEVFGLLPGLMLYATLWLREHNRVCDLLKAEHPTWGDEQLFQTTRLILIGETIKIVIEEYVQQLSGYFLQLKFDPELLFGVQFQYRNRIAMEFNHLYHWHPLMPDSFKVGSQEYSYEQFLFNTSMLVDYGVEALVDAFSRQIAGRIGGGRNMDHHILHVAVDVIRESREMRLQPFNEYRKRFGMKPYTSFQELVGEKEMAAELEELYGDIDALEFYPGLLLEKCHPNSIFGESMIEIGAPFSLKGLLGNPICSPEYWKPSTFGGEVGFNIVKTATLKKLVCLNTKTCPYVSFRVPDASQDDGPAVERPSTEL
Chain of Beta-1 adrenergic receptor (P08588 whole entry): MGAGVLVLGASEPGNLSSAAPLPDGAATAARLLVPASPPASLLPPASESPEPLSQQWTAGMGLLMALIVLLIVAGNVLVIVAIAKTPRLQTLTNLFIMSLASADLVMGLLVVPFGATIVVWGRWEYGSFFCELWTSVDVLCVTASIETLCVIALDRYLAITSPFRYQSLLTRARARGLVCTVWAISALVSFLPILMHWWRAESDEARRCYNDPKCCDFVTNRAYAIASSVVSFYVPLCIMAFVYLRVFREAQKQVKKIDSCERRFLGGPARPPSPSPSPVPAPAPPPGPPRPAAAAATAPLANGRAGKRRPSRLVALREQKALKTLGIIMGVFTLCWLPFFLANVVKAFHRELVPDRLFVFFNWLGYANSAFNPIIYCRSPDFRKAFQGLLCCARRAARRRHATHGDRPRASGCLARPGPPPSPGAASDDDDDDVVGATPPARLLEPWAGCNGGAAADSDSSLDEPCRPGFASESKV
Chain of Insulin receptor (P15127 27-759 limits assumed): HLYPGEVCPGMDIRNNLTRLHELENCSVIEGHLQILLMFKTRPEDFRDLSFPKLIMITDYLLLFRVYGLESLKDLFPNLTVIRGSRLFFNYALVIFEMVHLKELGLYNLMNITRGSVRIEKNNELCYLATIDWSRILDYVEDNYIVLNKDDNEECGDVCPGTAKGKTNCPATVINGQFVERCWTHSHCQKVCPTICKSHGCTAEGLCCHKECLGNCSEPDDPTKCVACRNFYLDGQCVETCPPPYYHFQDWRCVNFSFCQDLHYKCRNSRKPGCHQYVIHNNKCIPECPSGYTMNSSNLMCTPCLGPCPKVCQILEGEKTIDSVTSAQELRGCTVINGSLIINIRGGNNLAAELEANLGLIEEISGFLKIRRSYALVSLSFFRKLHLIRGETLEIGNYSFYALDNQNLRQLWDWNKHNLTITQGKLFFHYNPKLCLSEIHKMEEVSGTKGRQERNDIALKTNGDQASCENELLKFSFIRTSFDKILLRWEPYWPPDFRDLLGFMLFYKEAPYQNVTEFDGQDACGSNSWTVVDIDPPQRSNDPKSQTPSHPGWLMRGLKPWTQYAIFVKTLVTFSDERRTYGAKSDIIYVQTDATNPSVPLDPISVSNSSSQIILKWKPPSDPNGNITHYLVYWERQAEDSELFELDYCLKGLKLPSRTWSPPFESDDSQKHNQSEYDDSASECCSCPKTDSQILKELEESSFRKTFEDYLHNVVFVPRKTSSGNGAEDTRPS
Chain of Insulin receptor (P15127 764-1383 limits assumed): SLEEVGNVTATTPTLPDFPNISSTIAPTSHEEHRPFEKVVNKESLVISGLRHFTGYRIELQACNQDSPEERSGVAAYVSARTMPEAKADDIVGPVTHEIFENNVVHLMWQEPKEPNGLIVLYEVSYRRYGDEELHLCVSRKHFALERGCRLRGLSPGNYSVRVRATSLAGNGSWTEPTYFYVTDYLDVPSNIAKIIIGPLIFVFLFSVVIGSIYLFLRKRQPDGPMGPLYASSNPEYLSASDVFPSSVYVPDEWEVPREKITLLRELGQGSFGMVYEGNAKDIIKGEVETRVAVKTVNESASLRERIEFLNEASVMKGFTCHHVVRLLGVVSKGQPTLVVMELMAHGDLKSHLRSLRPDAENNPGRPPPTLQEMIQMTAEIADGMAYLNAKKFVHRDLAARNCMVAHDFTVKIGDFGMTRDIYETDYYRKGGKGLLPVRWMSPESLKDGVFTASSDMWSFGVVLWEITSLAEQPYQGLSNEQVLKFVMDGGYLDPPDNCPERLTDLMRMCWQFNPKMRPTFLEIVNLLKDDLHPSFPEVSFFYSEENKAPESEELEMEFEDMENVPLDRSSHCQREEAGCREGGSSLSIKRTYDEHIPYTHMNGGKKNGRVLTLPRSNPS

One may read the IC50 as the concentration that gives 50% inhibition. For the compound `O=C(c1ccc(OCCN2CCCCC2)cc1)c1c(-c2ccc(O)cc2)sc2cc(O)ccc12` [RALOXIFENE], the half-inhibitory concentration (IC50) result in [1], in data set [2], in data set [3], in data set [4], in [5] and in data set [6] was “Not Active” in each case. Besides, the IC50 entry in [7], in data set [8] (platelet), in data set [9], in data set [10] and in data set [11] was “Not Active” each time. Further, the Ki result in data set [1], in [5], in data set [7] and in data set [11] was “Not Active” in each case.
As for `CNC(=C[N+](=O)[O-])NCCSCc1ccc(CN(C)C)o1` [RANITIDINE], the IC50 entry in [1], in [2], in data set [3], in data set [4], in data set [5] and in [6] was “Not Active” throughout. Besides, the IC50 result in [7], in [8] (platelet), in data set [9], in data set [10] and in data set [11] was “Not Active” throughout. In addition, the Ki result in [1], in data set [5], in data set [7] and in data set [11] was “Not Active” in each case.
Consider `CO[C@H]1/C=C/O[C@@]2(C)Oc3c(C)c(O)c4c(c3C2=O)C2=NC3(CCN(CC(C)C)CC3)NC2=C(NC(=O)/C(C)=C\C=C\[C@H](C)[C@H](O)[C@@H](C)[C@@H](O)[C@@H](C)[C@H](OC(C)=O)[C@@H]1C)C4=O` [RIFABUTIN], for which the IC50 result in data set [1], in data set [2], in data set [3], in data set [4], in [5] and in data set [6] was “Not Active” in each case. Besides, the IC50 result in [7], in [8] (platelet), in [9], in data set [10] and in [11] was “Not Active” in each case. For the same compound, the Ki result in data set [1], in [5], in [7] and in data set [11] was “Not Active” throughout.
`CC(C)CC(N(C)C)C1(c2ccc(Cl)cc2)CCC1` (stereo not given) [SIBUTRAMINE]: the IC50 result in data set [1], in data set [2], in data set [3], in data set [4], in data set [5] and in data set [6] was “Not Active” in each case. For the same compound, the IC50 entry in data set [7], in data set [8] (platelet), in data set [9], in [10] and in data set [11] was “Not Active” in each case. The Ki entry in [1], in data set [5], in data set [7] and in data set [11] was “Not Active” throughout.
As for `[H]/N=C(/N)N[C@H]1[C@H](O)[C@@H](O)[C@H](O[C@@H]2O[C@@H](C)[C@](O)(C=O)[C@H]2O[C@@H]2O[C@@H](CO)[C@H](O)[C@@H](O)[C@@H]2NC)[C@@H](N/C(N)=N\[H])[C@@H]1O` [STREPTOMYCIN], the IC50 result in data set [1], in data set [2], in [3], in data set [4], in [5] and in data set [6] was “Not Active” in each case. Also, the IC50 result in [7], in [8] (platelet), in data set [9], in data set [10] and in data set [11] was “Not Active” each time. Further, the Ki entry in data set [1], in data set [5], in data set [7] and in data set [11] was “Not Active” in each case.
As for `COc1cc(NS(=O)(=O)c2ccc(N)cc2)nc(OC)n1` [SULFADIMETHOXINE], the IC50 result in data set [1], in data set [2], in data set [3], in data set [4], in [5] and in data set [6] was “Not Active” each time. Moreover, the IC50 result in data set [7], in data set [8] (platelet), in [9], in data set [10] and in data set [11] was “Not Active” throughout. The Ki result in data set [1], in data set [5], in [7] and in [11] was “Not Active” in each case.
For the compound `Cc1cc(C)nc(NS(=O)(=O)c2ccc(N)cc2)n1` [SULFAMETHAZINE], the IC50 result in data set [1], in data set [2], in data set [3], in data set [4], in [5] and in [6] was “Not Active” each time. For the same compound, the IC50 entry in [7], in data set [8] (platelet), in [9], in data set [10] and in data set [11] was “Not Active” throughout. The Ki entry in data set [1], in [5], in data set [7] and in data set [11] was “Not Active” each time.
Take `C[C@]1(Cn2ccnn2)[C@H](C(=O)O)N2C(=O)C[C@H]2S1(=O)=O` [TAZOBACTAM]: the IC50 entry in data set [1], in data set [2], in data set [3], in data set [4], in data set [5] and in [6] was “Not Active” in each case. For the same compound, the IC50 result in [7], in data set [8] (platelet), in [9], in data set [10] and in [11] was “Not Active” throughout. For the same compound, the Ki result in data set [1], in data set [5], in [7] and in data set [11] was “Not Active” in each case.
Regarding `CN1C(C(=O)Nc2ccccn2)=C(O)c2sccc2S1(=O)=O` [TENOXICAM], the IC50 result in data set [1], in data set [2], in data set [3], in [4], in [5] and in [6] was “Not Active” each time. For the same compound, the IC50 entry in data set [7] is “Not Active”; in [8] (read-out: IC50), 1.14 µM; in data set [9], “Not Active”; in data set [10], “Not Active”; in [11] it was “Not Active”. Moreover, the Ki result in [1], in data set [5], in data set [7] and in data set [11] was “Not Active” throughout.
As to `CC(C)(C)c1ccc(C(O)CCCN2CCC(C(O)(c3ccccc3)c3ccccc3)CC2)cc1` (stereo not given) [TERFENADINE], the IC50 result in data set [1], in [2], in data set [3], in data set [4], in data set [5] and in data set [6] was “Not Active” in each case. Also, the IC50 entry in data set [7], in data set [8] (platelet), in [9], in data set [10] and in [11] was “Not Active” each time. The Ki entry in data set [1], in [5], in data set [7] and in data set [11] was “Not Active” in each case.
For `O=C1CCC(N2C(=O)c3ccccc3C2=O)C(=O)N1` (stereo not given) [THALIDOMIDE], the IC50 result in data set [1], in data set [2], in data set [3], in [4], in data set [5] and in data set [6] was “Not Active” each time. In addition, the IC50 result in data set [7], in [8] (platelet), in [9], in [10] and in [11] was “Not Active” in each case. Moreover, the Ki entry in [1], in data set [5], in data set [7] and in [11] was “Not Active” in each case.
On to `Cc1cccc(Nc2ccncc2S(=O)(=O)NC(=O)NC(C)C)c1` [TORSEMIDE], for which the IC50 entry in data set [1], in [2], in [3], in data set [4], in [5] and in data set [6] was “Not Active” throughout. Moreover, the IC50 entry in data set [7], in [8] (platelet), in data set [9], in [10] and in data set [11] was “Not Active” each time. The Ki entry in data set [1], in data set [5], in data set [7] and in data set [11] was “Not Active” each time.
